The kinase profiling compilation of Christmann-Franck et al. (2016)
One block for each compound: values may come before it.

How the values were obtained:
Test in all cases: radiometric filter-binding kinase assay
EPHB4 (human) = EPHB4 (human) (UniProt P54760)
MAP3K7 TAB1 (human) = MAP3K7 TAB1 (human) (UniProt Q15750+O43318)
[1] = system: SGK1 (human), O00141 [S422D]
DYRK3 (human) = DYRK3 (human) (UniProt O43781)
MAPKAPK5 (human) = MAPKAPK5 (human) (UniProt Q8IW41)
ROCK2 (rat) = details: accession and sequence are those of the human protein
PIM1 (human) = PIM1 (human) (UniProt P11309)
TAOK1 (human) = TAOK1 (human) (UniProt Q7L7X3)
MELK (human) = MELK (human) (UniProt Q14680)
MAPKAPK2 (human) = MAPKAPK2 (human) (UniProt P49137)
NEK2 (human) = NEK2 (human) (UniProt P51955)
DAPK1 (human) = DAPK1 (human) (UniProt P53355)
MAPK14 (human) = MAPK14 (human) (UniProt Q16539)
EPHA2 (human) = EPHA2 (human) (UniProt P29317)
TTK (human) = TTK (human) (UniProt P33981)
EPHB1 (human) = EPHB1 (human) (UniProt P54762)
MYLK (human) = MYLK (human) (UniProt Q15746)
MARK1 (human) = MARK1 (human) (UniProt Q9P0L2)
DYRK2 (human) = DYRK2 (human) (UniProt Q92630)
PKN2 (human) = PKN2 (human) (UniProt Q16513)
PIM3 (human) = PIM3 (human) (UniProt Q86V86)
RPS6KA1 KD1 KD2 (human) = RPS6KA1 KD1 KD2 (human) (UniProt Q15418)
CLK2 (human) = CLK2 (human) (UniProt P49760)
HIPK2 (human) = HIPK2 (human) (UniProt Q9H2X6)
EPHB2 (human) = EPHB2 (human) (UniProt P29323)
IRAK4 (human) = IRAK4 (human) (UniProt Q9NWZ3)
MARK2 (human) = MARK2 (human) (UniProt Q7KZI7)
STK3 (human) = STK3 (human) (UniProt Q13188)
GCK (human) = GCK (human) (UniProt Q12851)
IKBKE (human) = IKBKE (human) (UniProt Q14164)
CHEK2 (human) = CHEK2 (human) (UniProt O96017)
[2] = system: RPS6KB1 (human), P23443 [T412E]
FLT1 (human) = FLT1 (human) (UniProt P17948)
MAPK12 (human) = MAPK12 (human) (UniProt P53778)
PRKCA (human) = PRKCA (human) (UniProt P17252)

Sequence of PIM1 (human) (P11309 whole entry, looked up): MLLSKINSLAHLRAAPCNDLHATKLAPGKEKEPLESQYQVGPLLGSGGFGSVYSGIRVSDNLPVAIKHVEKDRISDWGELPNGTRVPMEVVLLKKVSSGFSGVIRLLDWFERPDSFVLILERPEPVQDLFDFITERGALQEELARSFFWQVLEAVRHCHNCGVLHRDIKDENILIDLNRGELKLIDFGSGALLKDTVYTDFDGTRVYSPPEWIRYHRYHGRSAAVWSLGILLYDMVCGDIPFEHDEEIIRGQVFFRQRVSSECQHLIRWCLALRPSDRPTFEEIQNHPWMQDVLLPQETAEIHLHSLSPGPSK
Sequence of EPHA2 (human) (P29317 whole entry, looked up): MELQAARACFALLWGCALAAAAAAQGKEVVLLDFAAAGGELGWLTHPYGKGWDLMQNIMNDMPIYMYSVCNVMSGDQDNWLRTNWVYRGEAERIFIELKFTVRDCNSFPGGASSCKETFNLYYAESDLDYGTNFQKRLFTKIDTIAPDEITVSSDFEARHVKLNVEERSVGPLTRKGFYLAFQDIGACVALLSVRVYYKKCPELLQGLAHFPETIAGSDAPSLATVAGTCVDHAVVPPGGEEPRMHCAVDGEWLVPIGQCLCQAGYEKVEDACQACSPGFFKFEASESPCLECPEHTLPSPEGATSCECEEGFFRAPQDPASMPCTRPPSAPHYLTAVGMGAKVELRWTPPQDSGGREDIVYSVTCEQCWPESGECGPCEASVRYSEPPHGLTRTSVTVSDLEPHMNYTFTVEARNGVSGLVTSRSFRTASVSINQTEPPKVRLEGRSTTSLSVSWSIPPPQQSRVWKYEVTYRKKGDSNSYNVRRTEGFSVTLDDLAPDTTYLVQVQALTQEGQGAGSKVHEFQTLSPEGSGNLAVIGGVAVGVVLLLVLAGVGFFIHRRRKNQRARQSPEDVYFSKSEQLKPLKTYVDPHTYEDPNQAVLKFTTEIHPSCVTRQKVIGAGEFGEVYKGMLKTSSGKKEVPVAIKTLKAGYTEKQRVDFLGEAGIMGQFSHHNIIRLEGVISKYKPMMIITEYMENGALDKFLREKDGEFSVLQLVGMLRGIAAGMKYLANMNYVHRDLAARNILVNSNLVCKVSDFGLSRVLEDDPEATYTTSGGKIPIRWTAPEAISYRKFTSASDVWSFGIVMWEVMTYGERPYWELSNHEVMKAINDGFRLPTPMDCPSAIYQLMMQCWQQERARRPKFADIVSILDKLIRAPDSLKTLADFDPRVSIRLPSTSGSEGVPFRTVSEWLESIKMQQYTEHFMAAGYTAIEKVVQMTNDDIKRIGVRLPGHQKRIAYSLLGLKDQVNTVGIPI
Sequence of RPS6KB1 (human), P23443 [T412E] (P23443 whole entry T412E, looked up): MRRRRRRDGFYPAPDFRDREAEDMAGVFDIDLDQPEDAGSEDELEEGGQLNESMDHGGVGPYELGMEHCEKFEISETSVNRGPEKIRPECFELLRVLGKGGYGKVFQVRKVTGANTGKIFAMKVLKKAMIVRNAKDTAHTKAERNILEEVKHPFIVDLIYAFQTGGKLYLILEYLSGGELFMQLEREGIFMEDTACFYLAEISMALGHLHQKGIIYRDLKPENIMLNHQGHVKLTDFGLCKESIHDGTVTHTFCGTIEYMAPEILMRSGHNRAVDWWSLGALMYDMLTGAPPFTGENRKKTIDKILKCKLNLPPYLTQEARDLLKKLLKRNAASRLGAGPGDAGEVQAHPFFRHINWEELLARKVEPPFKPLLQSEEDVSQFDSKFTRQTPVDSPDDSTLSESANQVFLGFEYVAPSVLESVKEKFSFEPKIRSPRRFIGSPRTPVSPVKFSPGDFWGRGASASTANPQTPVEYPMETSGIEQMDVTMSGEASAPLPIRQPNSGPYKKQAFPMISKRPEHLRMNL
Sequence of MAPK12 (human) (P53778 whole entry, looked up): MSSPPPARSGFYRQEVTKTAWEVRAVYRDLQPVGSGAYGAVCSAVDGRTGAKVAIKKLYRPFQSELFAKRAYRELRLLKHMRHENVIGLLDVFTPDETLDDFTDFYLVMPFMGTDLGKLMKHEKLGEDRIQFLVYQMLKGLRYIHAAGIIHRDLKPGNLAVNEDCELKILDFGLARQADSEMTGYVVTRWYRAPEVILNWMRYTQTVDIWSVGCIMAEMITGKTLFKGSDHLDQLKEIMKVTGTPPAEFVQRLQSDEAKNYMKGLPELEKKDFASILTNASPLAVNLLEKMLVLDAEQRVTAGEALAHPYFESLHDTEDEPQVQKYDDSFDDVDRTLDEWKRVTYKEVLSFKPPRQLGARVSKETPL
Sequence of IKBKE (human) (Q14164 whole entry, looked up): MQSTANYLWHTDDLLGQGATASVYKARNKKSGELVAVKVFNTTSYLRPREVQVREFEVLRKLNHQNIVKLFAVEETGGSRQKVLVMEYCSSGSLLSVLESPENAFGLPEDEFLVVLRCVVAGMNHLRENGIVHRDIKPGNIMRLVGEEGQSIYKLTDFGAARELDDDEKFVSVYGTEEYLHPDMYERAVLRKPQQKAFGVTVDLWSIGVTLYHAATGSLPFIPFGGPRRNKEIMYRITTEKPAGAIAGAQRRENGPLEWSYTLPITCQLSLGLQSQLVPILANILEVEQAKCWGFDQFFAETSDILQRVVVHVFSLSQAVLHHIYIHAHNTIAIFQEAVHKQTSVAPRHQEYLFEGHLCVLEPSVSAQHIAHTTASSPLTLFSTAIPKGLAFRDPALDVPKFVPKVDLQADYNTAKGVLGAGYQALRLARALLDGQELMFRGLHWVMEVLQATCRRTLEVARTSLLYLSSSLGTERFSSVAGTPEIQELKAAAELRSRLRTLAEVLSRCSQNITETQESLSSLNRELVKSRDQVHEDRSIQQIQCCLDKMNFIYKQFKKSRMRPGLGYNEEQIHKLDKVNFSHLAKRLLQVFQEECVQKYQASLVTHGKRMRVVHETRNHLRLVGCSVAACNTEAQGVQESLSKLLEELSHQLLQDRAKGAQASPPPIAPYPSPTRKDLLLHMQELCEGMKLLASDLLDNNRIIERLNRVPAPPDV
Sequence of STK3 (human) (Q13188 whole entry, looked up): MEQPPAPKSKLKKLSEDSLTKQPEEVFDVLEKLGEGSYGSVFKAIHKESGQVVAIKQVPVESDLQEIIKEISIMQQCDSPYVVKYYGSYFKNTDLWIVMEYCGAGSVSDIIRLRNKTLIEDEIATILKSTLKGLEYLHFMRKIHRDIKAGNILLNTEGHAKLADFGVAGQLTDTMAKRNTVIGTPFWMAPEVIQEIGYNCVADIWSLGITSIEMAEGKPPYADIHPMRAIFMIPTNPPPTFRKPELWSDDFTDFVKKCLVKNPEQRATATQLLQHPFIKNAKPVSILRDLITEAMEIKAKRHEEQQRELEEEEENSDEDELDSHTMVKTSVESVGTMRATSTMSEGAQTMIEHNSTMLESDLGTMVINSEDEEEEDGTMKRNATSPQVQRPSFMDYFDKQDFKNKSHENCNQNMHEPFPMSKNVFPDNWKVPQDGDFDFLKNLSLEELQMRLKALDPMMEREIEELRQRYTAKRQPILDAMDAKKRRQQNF
Sequence of MAPKAPK5 (human) (Q8IW41 whole entry, looked up): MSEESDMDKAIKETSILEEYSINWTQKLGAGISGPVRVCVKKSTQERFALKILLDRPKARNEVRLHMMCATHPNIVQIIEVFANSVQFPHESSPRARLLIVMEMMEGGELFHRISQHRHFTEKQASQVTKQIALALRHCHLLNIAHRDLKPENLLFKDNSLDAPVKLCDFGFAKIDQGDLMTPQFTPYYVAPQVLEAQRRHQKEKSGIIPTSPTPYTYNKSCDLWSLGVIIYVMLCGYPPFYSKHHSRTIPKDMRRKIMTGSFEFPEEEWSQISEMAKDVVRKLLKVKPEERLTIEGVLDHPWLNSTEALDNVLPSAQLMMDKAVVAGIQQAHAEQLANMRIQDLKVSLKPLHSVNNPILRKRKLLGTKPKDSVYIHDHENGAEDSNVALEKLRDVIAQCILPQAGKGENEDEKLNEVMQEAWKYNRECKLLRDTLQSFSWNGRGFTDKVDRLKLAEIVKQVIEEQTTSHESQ
Sequence of SGK1 (human), O00141 [S422D] (O00141 whole entry S422D, looked up): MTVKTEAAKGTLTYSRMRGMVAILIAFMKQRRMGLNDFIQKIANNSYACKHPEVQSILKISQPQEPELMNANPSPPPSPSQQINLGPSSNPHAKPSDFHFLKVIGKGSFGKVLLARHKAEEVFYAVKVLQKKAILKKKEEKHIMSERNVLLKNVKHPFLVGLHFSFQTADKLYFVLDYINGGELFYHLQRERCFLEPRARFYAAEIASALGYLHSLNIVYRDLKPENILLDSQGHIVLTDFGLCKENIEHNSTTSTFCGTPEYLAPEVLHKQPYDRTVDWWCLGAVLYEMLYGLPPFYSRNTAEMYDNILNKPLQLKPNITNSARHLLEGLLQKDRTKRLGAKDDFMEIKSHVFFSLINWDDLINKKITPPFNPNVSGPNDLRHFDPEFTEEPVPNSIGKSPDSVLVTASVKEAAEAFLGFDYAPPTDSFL

residual activity (EPHB4 (human); compound 10.0 µM): 99% | residual activity (MAP3K7 TAB1 (human); compound 10.0 µM): 96% | residual activity ([1]; compound 10.0 µM): 101% | residual activity ([1]; compound 100.0 µM): 60% | residual activity (DYRK3 (human); compound 10.0 µM): 99% | residual activity (MAPKAPK5 (human); compound 10.0 µM): 82% | residual activity (MAPKAPK5 (human); compound 100.0 µM): 64% | residual activity (ROCK2 (rat); compound 10.0 µM): 77% | residual activity (ROCK2 (rat); compound 100.0 µM): 76% | residual activity (PIM1 (human); compound 10.0 µM): 87% | residual activity (TAOK1 (human); compound 10.0 µM): 82% | residual activity (MELK (human); compound 10.0 µM): 96% | residual activity (MAPKAPK2 (human); compound 10.0 µM): 82% | residual activity (MAPKAPK2 (human); compound 100.0 µM): 80% | residual activity (NEK2 (human); compound 10.0 µM): 77% | residual activity (NEK2 (human); compound 100.0 µM): 82% | residual activity (DAPK1 (human); compound 10.0 µM): 93% | residual activity (MAPK14 (human); compound 10.0 µM): 101% | residual activity (MAPK14 (human); compound 100.0 µM): 80% | residual activity (EPHA2 (human); compound 10.0 µM): 109% | residual activity (TTK (human); compound 10.0 µM): 87% | residual activity (EPHB1 (human); compound 10.0 µM): 97% | residual activity (MYLK (human); compound 10.0 µM): 74% | residual activity (MARK1 (human); compound 10.0 µM): 96% | residual activity (DYRK2 (human); compound 10.0 µM): 76% | residual activity (PKN2 (human); compound 10.0 µM): 95% | residual activity (PIM3 (human); compound 10.0 µM): 83% | residual activity (RPS6KA1 KD1 KD2 (human); compound 10.0 µM): 76% | residual activity (RPS6KA1 KD1 KD2 (human); compound 100.0 µM): 77% | residual activity (CLK2 (human); compound 10.0 µM): 87% | residual activity (HIPK2 (human); compound 10.0 µM): 98% | residual activity (EPHB2 (human); compound 10.0 µM): 116% | residual activity (IRAK4 (human); compound 10.0 µM): 86% | residual activity (MARK2 (human); compound 10.0 µM): 93% | residual activity (STK3 (human); compound 10.0 µM): 104% | residual activity (GCK (human); compound 10.0 µM): 97% | residual activity (IKBKE (human); compound 10.0 µM): 85% | residual activity (CHEK2 (human); compound 10.0 µM): 100% | residual activity ([2]; compound 10.0 µM): 92% | residual activity ([2]; compound 100.0 µM): 71% | residual activity (FLT1 (human); compound 10.0 µM): 85% | residual activity (MAPK12 (human); compound 10.0 µM): 99% | residual activity (MAPK12 (human); compound 100.0 µM): 80% | residual activity (PRKCA (human); compound 10.0 µM): 103% | residual activity (PRKCA (human); compound 100.0 µM): 75%
Structure (SMILES): Cc1ccc2c(c1)C(=O)[C@@]1(O)CCN(c3ccccc3)C1=N2

residual activity (EPHB4 (human); compound 1.0 µM): 90% | residual activity (EPHB4 (human); compound 10.0 µM): 56% | residual activity (MAP3K7 TAB1 (human); compound 1.0 µM): 94% | residual activity (MAP3K7 TAB1 (human); compound 10.0 µM): 5% | residual activity ([1]; compound 1.0 µM): 87% | residual activity ([1]; compound 10.0 µM): 24% | residual activity (DYRK3 (human); compound 1.0 µM): 59% | residual activity (DYRK3 (human); compound 10.0 µM): 2% | residual activity (MAPKAPK5 (human); compound 1.0 µM): 87% | residual activity (MAPKAPK5 (human); compound 10.0 µM): 1% | residual activity (ROCK2 (rat); compound 1.0 µM): 95% | residual activity (ROCK2 (rat); compound 10.0 µM): 56% | residual activity (PIM1 (human); compound 1.0 µM): 37% | residual activity (PIM1 (human); compound 10.0 µM): 7% | residual activity (TAOK1 (human); compound 1.0 µM): 94% | residual activity (MELK (human); compound 1.0 µM): 53% | residual activity (MELK (human); compound 10.0 µM): 9% | residual activity (MAPKAPK2 (human); compound 1.0 µM): 94% | residual activity (MAPKAPK2 (human); compound 10.0 µM): 53% | residual activity (NEK2 (human); compound 1.0 µM): 86% | residual activity (NEK2 (human); compound 10.0 µM): 13% | residual activity (DAPK1 (human); compound 1.0 µM): 95% | residual activity (MAPK14 (human); compound 1.0 µM): 100% | residual activity (MAPK14 (human); compound 10.0 µM): 119% | residual activity (EPHA2 (human); compound 1.0 µM): 94% | residual activity (EPHA2 (human); compound 10.0 µM): 73% | residual activity (TTK (human); compound 1.0 µM): 75% | residual activity (TTK (human); compound 10.0 µM): 36% | residual activity (EPHB1 (human); compound 1.0 µM): 85% | residual activity (MYLK (human); compound 1.0 µM): 87% | residual activity (MYLK (human); compound 10.0 µM): 23% | residual activity (MARK1 (human); compound 1.0 µM): 40% | residual activity (MARK1 (human); compound 10.0 µM): 11% | residual activity (DYRK2 (human); compound 1.0 µM): 45% | residual activity (DYRK2 (human); compound 10.0 µM): 1% | residual activity (PKN2 (human); compound 1.0 µM): 106% | residual activity (PKN2 (human); compound 10.0 µM): 102% | residual activity (PIM3 (human); compound 1.0 µM): 34% | residual activity (PIM3 (human); compound 10.0 µM): 0% | residual activity (RPS6KA1 KD1 KD2 (human); compound 1.0 µM): 51% | residual activity (RPS6KA1 KD1 KD2 (human); compound 10.0 µM): 15% | residual activity (CLK2 (human); compound 1.0 µM): 58% | residual activity (HIPK2 (human); compound 1.0 µM): 62% | residual activity (HIPK2 (human); compound 10.0 µM): 19% | residual activity (EPHB2 (human); compound 1.0 µM): 69% | residual activity (IRAK4 (human); compound 1.0 µM): 80% | residual activity (IRAK4 (human); compound 10.0 µM): 46% | residual activity (MARK2 (human); compound 1.0 µM): 86% | residual activity (MARK2 (human); compound 10.0 µM): 26% | residual activity (STK3 (human); compound 1.0 µM): 58% | residual activity (STK3 (human); compound 10.0 µM): 9% | residual activity (GCK (human); compound 1.0 µM): 93% | residual activity (GCK (human); compound 10.0 µM): 23% | residual activity (IKBKE (human); compound 1.0 µM): 69% | residual activity (IKBKE (human); compound 10.0 µM): 21% | residual activity (CHEK2 (human); compound 1.0 µM): 48% | residual activity (CHEK2 (human); compound 10.0 µM): 5% | residual activity ([2]; compound 1.0 µM): 104% | residual activity ([2]; compound 10.0 µM): 14% | residual activity (FLT1 (human); compound 1.0 µM): 27% | residual activity (FLT1 (human); compound 10.0 µM): 7% | residual activity (MAPK12 (human); compound 1.0 µM): 107% | residual activity (MAPK12 (human); compound 10.0 µM): 88% | residual activity (PRKCA (human); compound 1.0 µM): 99% | residual activity (PRKCA (human); compound 10.0 µM): 80%
Structure (SMILES): O=c1c(O)c(-c2ccc(O)c(O)c2)oc2cc(O)c(O)c(O)c12
